# Experiments:
# 5-HTT mRNA = assay: In situ hybridization of 5-HTT mRNA after intranasal 5-HTT-NLF-siRNA; type: in vivo, mice (C57BL/6J)
# Protocol: Twenty-four h after treatment, mice were killed by decapitation and the brains rapidly removed, frozen on dry ice and stored at −20° C. Tissue sections, 14 μm thick, were cut using a microtome-cryostat, thaw-mounted onto APTS (3-aminopropyltriethoxysilane) coated slides and kept at −20° C. until use.
# To determine 5-HTT mRNA expression level, in situ hybridization assays were performed using an oligodeoxyribonucleotide probe specific for 5-HIT, complementary to bases 820-863 (Mouse, GenBank Accession Number: NM_010484). The 5-HTT oligonucleotide was individually labeled (2 pmol) at its 3′-end with [^33P]-dATP (>2500 Ci/mmol) using terminal deoxynucleotidyltransferase, purified by centrifugation using QIAquick Nucleotide Removal Kit. The protocols for single label in situ hybridization were based on previously described procedures. Briefly, frozen tissue sections, as described in example 2, were first brought to room temperature, fixed for 20 min at 4° C. in 4% paraformaldehyde in phosphate buffered saline (1×PBS: 8 mM Na2HPO4, 1.4 mM KH2PO4, 136 mM NaCl, 2.6 mM KCl), washed for 5 min in 3×PBS at room temperature, twice for 5 min each in 1×PBS and incubated for 2 min at 21° C. in a solution of pre-digested pronase at a final concentration of 24 U/ml in 50 mM Tris-HCl pH 7.5, 5 mM EDTA. The enzymatic activity was stopped by immersion for 30 s in 2 mg/ml glycine in 1×PBS. […]
# [1] = test system: serotonin transporter (5-HTT); assay: [3H]citalopram autoradiographic binding of serotonin transporter after intranasal 5-HTT-NLF-siRNA; type: in vivo, mice; conditions: vs vehicle or NLF-nonsense-siRNA, FIG. 15B-C
# Text: 24-48. h after NLF-siRNA intranasal administration, mice were killed and their brains were removed and serial coronal sections of 14 μm thickness were obtained at the following AP coordinates, in mm, relative to bregma (Franklin and Paxinos, 1997): 2.2 (prefrontal cortex-PFC), 1.1 to 0.6 (caudate putamen—CPu, lateral and medial septal nucleus—Sep, ventral pallidum—VP), −1.5 to −1.8 (hippocampus—HPC, hypothalamus—Hip) and −4.24 to −4.96 (dorsal raphe nucleus—DR and median raphe nucleus—MnR). Briefly, frozen tissue sections were thawed and dried, preincubated in 50 mM Tris-HCl buffer (pH 7.4 at 25° C.) containing 120 mM NaCl and 5 mM KCl for 15 mm at room temperature. […] After incubation and washing, tissue sections were dipped in distilled ice-cold water and dried rapidly under a cold air stream. Tissues were exposed to tritium-sensitive film together with plastic ^3H-standards for 40 days at 4° C. Quantitative analysis of the autoradiograms was done with AIS computerized image analysis system. By using tissue-calibrated data from the co-exposed radioactive standards, OD values of autoradiograms were transformed to levels of radioactivity bound (nCi/mg tissue protein) to specific brain regions in tissue sections.
substance,measurement,setting,value
5-HTT-NLF-siRNA: 5-HTT-targeted siRNA (SEQ ID NO 14/15) conjugated to a group of formula (I) and one targeting agent (sertraline) (chain 1 GCUAGCUACAACAAGUUCATT; chain 2 UGAACUUGUUGUAGCUAGCTT; further chemistry not given here),5-HTT mRNA level in dorsal (DR) and median (MnR) raphe nuclei,"5-HTT mRNA; intranasal 10 and 30 μg, vs vehicle and nonsense-NLF-siRNA, FIG. 15A",reduction of 5-HTT mRNA level
same,knockdown of 5-HTT mRNA in dorsal raphe nuclei,"5-HTT mRNA; intranasal, both doses (10 and 30 μg/mice), three antero-posterior coordinates, FIG. 14A",specific knowdown of 5-HTT mRNA
same,serotonin transporter levels in the different brain areas,[1],reduction of the serotonin transporter levels

# From patent publication US10071163B2, “Compositions and methods for selective delivery of oligonucleotide molecules to specific neuron types” (nLife Therapeutics, S.L., priority 2010, dated 2018)
